# From PMC8224398, “SARS-CoV-2 mutations in MHC-I-restricted epitopes evade CD8^+ T cell responses” (Science Immunology, 2021)
# System: CD8+ T cells in PBMCs of COVID-19 patients
# Assay type: cell-based, human
sequence,measurement,value
YFQPRTFLL [YLQ mutant],wild type tetramer-positive CD8+ T cells after expansion with mutant versus wild type peptide (in words),reduced numbers of YLQ tetramer positive cells
